In the NIST ThermoML archive (doi:10.1021/je0602519):

Assay: xn = mol fraction of the nth substance listed
Conditions: 101 kPa, Liquid; for speed of sound: Frequency=2 MHz, Linear variable-path acoustic interferometer; for mass density: Pycnometric method

CCCCCCCCO [octan-1-ol] + Cc1ccccc1
Conditions	mass density, 303.15 K [kg/m3]	mass density, 313.15 K [kg/m3]	speed of sound, 303.15 K [m/s]	speed of sound, 313.15 K [m/s]	viscosity, 303.15 K [mPa·s]	viscosity, 313.15 K [mPa·s]
x2 = 0	818.38	811.05	1334	1304	6.433	4.603
x2 = 0.0495	819.62	812.14	1329	1300	5.63	4.13
x2 = 0.1104	821.19	813.56	1325	1293	4.775	3.645
x2 = 0.1513	822.25	814.55	1321	1287	4.281	3.261
x2 = 0.1999	823.55	815.73	1316	1282	3.788	2.832
x2 = 0.2517	824.98	817.04	1310	1274	3.28	2.545
x2 = 0.2997	826.34	818.29	1304	1268	2.952	2.218
x2 = 0.356	828.02	819.85	1297	1262	2.504	1.944
x2 = 0.3998	829.32	821.03	1291	1255	2.229	1.715
x2 = 0.4506	830.99	822.56	1286	1250	1.974	1.518
x2 = 0.5001	832.63	824.08	1281	1242	1.758	1.37
x2 = 0.5513	834.46	825.77	1276	1238	1.541	1.175
x2 = 0.6014	836.31	827.51	1272	1234	1.35	1.084
x2 = 0.6495	838.22	829.3	1270	1231	1.214	0.935
x2 = 0.6997	840.36	831.29	1268	1228	1.065	0.866
x2 = 0.7569	842.9	833.69	1267	1228	0.931	0.754
x2 = 0.8012	845.02	835.74	1268	1229	0.819	0.703
x2 = 0.8527	847.7	838.28	1269	1232	0.733	0.636
x2 = 0.9	850.32	840.85	1273	1236	0.646	0.558
x2 = 0.954	853.6	844	1280	1245	0.576	0.526

CCCCCCCO [heptan-1-ol] + Cc1ccccc1
Conditions	mass density, 303.15 K [kg/m3]	mass density, 313.15 K [kg/m3]	speed of sound, 303.15 K [m/s]	speed of sound, 313.15 K [m/s]	viscosity, 303.15 K [mPa·s]	viscosity, 313.15 K [mPa·s]
x2 = 0	814.89	807.68	1313	1279	5.048	3.712
x2 = 0.0525	816.52	809.17	1310	1274	4.404	3.362
x2 = 0.1014	818.06	810.59	1307	1271	3.859	3.074
x2 = 0.1518	819.67	812.07	1304	1267	3.4	2.77
x2 = 0.1859	820.78	813.13	1301	1263	3.154	2.55
x2 = 0.2489	822.84	815.02	1296	1258	2.645	2.226
x2 = 0.3011	824.61	816.69	1291	1251	2.314	1.986
x2 = 0.3504	826.34	818.24	1286	1247	2.042	1.77
x2 = 0.4006	828.07	819.87	1282	1242	1.796	1.583
x2 = 0.4494	829.88	821.57	1278	1237	1.594	1.436
x2 = 0.5003	831.83	823.35	1274	1233	1.399	1.271
x2 = 0.5486	833.72	825.14	1271	1230	1.25	1.144
x2 = 0.5903	835.44	826.72	1269	1227	1.113	1.069
x2 = 0.6493	837.95	829.09	1266	1226	0.982	0.965
x2 = 0.7011	840.28	831.32	1266	1225	0.888	0.84
x2 = 0.752	842.69	833.57	1267	1226	0.776	0.772
x2 = 0.8041	845.27	836.02	1268	1228	0.673	0.682
x2 = 0.8495	847.69	838.32	1272	1232	0.635	0.639
x2 = 0.9009	850.55	841.07	1276	1239	0.588	0.573
x2 = 0.9487	853.39	843.85	1282	1245	0.546	0.528

CCCCCCCCCCO [decan-1-ol] + Cc1ccccc1
Conditions	mass density, 303.15 K [kg/m3]	mass density, 313.15 K [kg/m3]	speed of sound, 303.15 K [m/s]	speed of sound, 313.15 K [m/s]	viscosity, 303.15 K [mPa·s]	viscosity, 313.15 K [mPa·s]
x2 = 0	822.87	815.97	1366	1334	9.716	6.82
x2 = 0.0507	823.76	816.74	1361	1327	8.474	6.06
x2 = 0.1015	824.73	817.58	1355	1320	7.424	5.343
x2 = 0.1473	825.62	818.34	1349	1314	6.635	4.771
x2 = 0.2091	826.88	819.45	1340	1305	5.658	4.059
x2 = 0.2577	827.9	820.38	1333	1297	4.962	3.552
x2 = 0.3006	828.84	821.2	1327	1292	4.458	3.112
x2 = 0.3496	829.95	822.24	1318	1283	3.848	2.71
x2 = 0.4028	831.22	823.38	1311	1275	3.32	2.263
x2 = 0.4516	832.48	824.49	1303	1268	2.843	1.903
x2 = 0.4989	833.77	825.69	1295	1261	2.499	1.678
x2 = 0.5497	835.29	827.06	1290	1255	2.152	1.47
x2 = 0.6009	836.92	828.57	1285	1249	1.883	1.305
x2 = 0.6498	838.61	830.11	1280	1245	1.594	1.162
x2 = 0.7065	840.8	832.12	1275	1240	1.414	0.994
x2 = 0.7524	842.7	833.86	1274	1239	1.15	0.905
x2 = 0.8069	845.15	836.21	1273	1239	1.021	0.79
x2 = 0.8472	847.18	838.04	1274	1240	0.887	0.732
x2 = 0.9063	850.54	841.18	1278	1243	0.75	0.64
x2 = 0.9489	853.12	843.58	1282	1248	0.599	0.565
